Assay results published in PubChem BioAssay AID1159559 (GlaxoSmithKline (GSK), 2015).
The source made the active and inactive calls.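 The calls were made as follows: active = compounds whose IC50 against parasite growth in infected mouse cells is below 50000 nM; inactive = the rest.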

Tested on: T. cruzi Tulahuen in NIH-3T3, beta-gal fluorescence, 4 d
Assay: anti-Chagas amastigote proliferation inhibitors – cell-based (AID 1159559)

Row | Structure (SMILES) | IC50
1 | Cc1cccnc1CN1CCN(CCCOc2ccc(-c3ccc(C(N)=O)cc3)cc2)CC1 | 630 nM
2 | Cc1nc2c(-c3nc(-c4ccc(N)cc4)n[nH]3)cccn2c1C | 6300 nM
3 | COc1ccc(-c2nc3ncccc3o2)cc1NC(=O)c1cccs1 | 2000 nM
4 | Cc1cc(N(C)C)nc2ccc(Cc3cnc(N)nc3N)cc12 | 1300 nM
5 | Nc1nonc1-c1nc2cncc(C(=O)N3CC[C@H](N)C3)c2n1CC1CC1 | > 50000 nM (inactive)
6 | Cc1cc2nc(CN(C)Cc3ncccc3C)[nH]c2cc1C | 500 nM
7 | COc1ccc(S(=O)(=O)NC(C)C)cc1Nc1ncc(-c2cccc(F)c2)cn1 | 630 nM
8 | CCn1nccc1CN(C)C(=O)C=Cc1ccc(Cl)cc1 | 200 nM
9 | CN(CC1CCCO1)S(=O)(=O)c1ccc(C(=O)Nc2nc(-c3ccccn3)cs2)cc1 (configuration not stated) | 1600 nM
10 | N#Cc1c(Oc2cccc(Cl)c2)cccc1[N+](=O)[O-] | 320 nM
11 | COc1cc(NC(=O)Nc2cccc(CNC(=O)OC3CCCCC3)c2)ccc1-c1cnco1 | 1000 nM
12 | N#Cc1ccc(S(=O)(=O)N2CCC3(CCN(c4ccccc4)C3=O)CC2)cc1 | 1300 nM
13 | COc1ccc(S(=O)(=O)Nc2ccccc2OC)cc1NC(=O)CCCc1c[nH]c2ccccc12 | 1600 nM
14 | N#Cc1cnc(Nc2cccc(CCN3CCOCC3)c2)nc1Nc1ccccc1C(N)=O | 1300 nM
15 | O=C(CN(Cc1ccccn1)Cc1ccccn1)NC1Cc2ccccc2C1 | 5000 nM
16 | CCN(CC)c1ncc(C(=O)c2ccc([N+](=O)[O-])o2)s1 | 4000 nM

Row | Structure (SMILES) | IC50
17 | O=C(NC1CCN(C2Cc3ccc(NS(=O)(=O)c4cc(F)cc(F)c4)cc3C2)CC1)C1CC1 (configuration not stated) | > 50000 nM (inactive)
18 | Cc1ccc2c(c1)-c1onc(C(=O)N3CCCCC3c3cccnc3)c1CO2 (configuration not stated) | 100 nM
19 | COc1ccc(NS(=O)(=O)c2cccc(NC(=O)c3cc(F)cc(F)c3)c2)cc1 | 790 nM
20 | COc1ccccc1C=CCN1C[C@H]2CCC[C@@H](C1)C2(O)c1cccnc1 (some centres not stated) | 50 nM
21 | CCCN1CCN(Cc2ccc(S(=O)(=O)Nc3cccc(C)c3)cc2)CC1 | 790 nM
22 | Cc1nc2c(-c3cccs3)c(C)nn2c(NCCO)c1C | 40000 nM
23 | O=c1[nH]cnc2c([C@@H]3O[C@H](CO)[C@@H](O)[C@H]3O)[nH]nc12 | 130 nM
24 | Cc1c(CNC(=O)c2ccc(Cn3cc(Cl)c([N+](=O)[O-])n3)cc2)cnn1C | 1000 nM
25 | Cc1cc(C#N)c([N+](=O)[O-])cc1Br | 200 nM
26 | Cc1cc(C)cc(NS(=O)(=O)c2cc(-c3cc(C)[nH]n3)ccc2C)c1 | 1000 nM
27 | Cc1ccc2nc(N(Cc3cccnc3)C(=O)CCc3ccccc3)sc2c1 | 40 nM
28 | CC(c1ccc2c(c1)CCCC2)N(C)c1ncc2c(N)nc(N)nc2n1 (configuration not stated) | 32 nM
29 | N#Cc1cccc(Nc2nccc(N3CCC(NS(=O)(=O)c4cccc(C#N)c4)CC3)n2)c1 | 1600 nM
30 | Cc1cc(C)nc(N2CCC(N(Cc3cccnc3)C(=O)c3cccc(C#N)c3)CC2)n1 | 320 nM
31 | CN(C)S(=O)(=O)c1ccc(Cl)c(C(=O)Nc2nc(-c3ccccn3)cs2)c1 | 1600 nM
32 | Clc1ccc(CN2CCN(C3=NCCN3)CC2)cc1Cl | 1300 nM
